Data: ChEMBL document CHEMBL3885881, “DrugMatrix”

Species on record: Rattus norvegicus
Assay: DrugMatrix - Regimen: Daily Repeat
Format: toxicity, organism-based, Sprague-Dawley
Parameters: regimen Daily Repeat, gender Male, age 6-8 weeks
Settings: in vivo, iv, vehicle 100 % SALINE; for ABSOLUTE BASOPHIL / ABSOLUTE EOSINOPHIL / ABSOLUTE LYMPHOCYTE / ABSOLUTE MONOCYTE / ABSOLUTE SEGMENTED NEUTROPHIL / BASOPHIL / EOSINOPHIL / ERYTHROCYTE COUNT / HEMATOCRIT / HEMOGLOBIN / LEUKOCYTE COUNT / LYMPHOCYTE / MEAN CORPUSCULAR HEMOGLOBIN / MEAN CORPUSCULAR HEMOGLOBIN CONCENTRATION / MEAN CORPUSCULAR VOLUME / MONOCYTE / NEUTROPHIL / NUCLEATED RED BLOOD CELLS / PLATELET COUNT: tissue Blood; for ALANINE AMINOTRANSFERASE / ALBUMIN / ALKALINE PHOSPHATASE / ASPARTATE AMINOTRANSFERASE / BLOOD UREA NITROGEN / CARBON DIOXIDE / CHLORIDE / CHOLESTEROL / CREATINE PHOSPHOKINASE / CREATININE / GLUCOSE / LACTATE DEHYDROGENASE / LIPASE / PHOSPHORUS / POTASSIUM / SODIUM / TOTAL BILIRUBIN / TOTAL PROTEIN / URIC ACID: tissue Plasma
[1] = 0 mg/kg, 72 h, dose level Control, time 3 day
[2] = 0 mg/kg, 120 h, dose level Control, time 5 day
[3] = 23 mg/kg, 72 h, dose level Low, time 3 day

Compound: Nc1ccn([C@@H]2O[C@H](CO)[C@@H](O)[C@@H]2O)c(=O)n1 [CYTARABINE]
- ABSOLUTE BASOPHIL [1]: 0 CELLS/uL
- ABSOLUTE EOSINOPHIL [1]: 0 CELLS/uL
- ABSOLUTE LYMPHOCYTE [1]: 7855.5 CELLS/uL
- ABSOLUTE MONOCYTE [1]: 36.17 CELLS/uL
- ABSOLUTE SEGMENTED NEUTROPHIL [1]: 575 CELLS/uL
- BASOPHIL [1]: 0%
- EOSINOPHIL [1]: 0%
- ERYTHROCYTE COUNT [1]: 5.14 x10E6/uL
- HEMATOCRIT [1]: 33.22%
- HEMOGLOBIN [1]: 12.97 G/DL
- LEUKOCYTE COUNT [1]: 8.47 x10E3/uL
- LYMPHOCYTE [1]: 93.17%
- MEAN CORPUSCULAR HEMOGLOBIN [1]: 25.28 pg
- MEAN CORPUSCULAR HEMOGLOBIN CONCENTRATION [1]: 39.05 G/DL
- MEAN CORPUSCULAR VOLUME [1]: 64.75 fL
- MONOCYTE [1]: 0.33%
- NEUTROPHIL [1]: 6.5%
- NUCLEATED RED BLOOD CELLS [1]: 0 /100WBC
- PLATELET COUNT [1]: 1092 x10E3/uL
- ALANINE AMINOTRANSFERASE [1]: 61.67 u/L
- ALBUMIN [1]: 4.03 G/DL
- ALKALINE PHOSPHATASE [1]: 292.33 u/L
- ASPARTATE AMINOTRANSFERASE [1]: 100.83 u/L
- BLOOD UREA NITROGEN [1]: 11 mg/dL
- CARBON DIOXIDE [1]: 34.67 mmol/L
- CHLORIDE [1]: 100.25 MEQ/L
- CHOLESTEROL [1]: 71.17 mg/dL
- CREATINE PHOSPHOKINASE [1]: 554.5 u/L
- CREATININE [1]: 0.31 mg/dL
- GLUCOSE [1]: 151 mg/dL
- LACTATE DEHYDROGENASE [1]: 88.67 u/L
- LIPASE [1]: 18.83 u/L
- PHOSPHORUS [1]: 10.42 mg/dL
- POTASSIUM [1]: 5.7 MEQ/L
- SODIUM [1]: 144.57 MEQ/L
- TOTAL BILIRUBIN [1]: 0.17 mg/dL
- TOTAL PROTEIN [1]: 5.8 G/DL
- URIC ACID [1]: 0.52 mg/dL
- ABSOLUTE BASOPHIL [2]: 0 CELLS/uL
- ABSOLUTE EOSINOPHIL [2]: 53.33 CELLS/uL
- ABSOLUTE LYMPHOCYTE [2]: 7739.83 CELLS/uL
- ABSOLUTE MONOCYTE [2]: 74.83 CELLS/uL
- ABSOLUTE SEGMENTED NEUTROPHIL [2]: 832 CELLS/uL
- BASOPHIL [2]: 0%
- EOSINOPHIL [2]: 0.67%
- ERYTHROCYTE COUNT [2]: 5.55 x10E6/uL
- HEMATOCRIT [2]: 34.77%
- HEMOGLOBIN [2]: 13.62 G/DL
- LEUKOCYTE COUNT [2]: 8.7 x10E3/uL
- LYMPHOCYTE [2]: 89.17%
- MEAN CORPUSCULAR HEMOGLOBIN [2]: 24.6 pg
- MEAN CORPUSCULAR HEMOGLOBIN CONCENTRATION [2]: 39.2 G/DL
- MEAN CORPUSCULAR VOLUME [2]: 62.78 fL
- MONOCYTE [2]: 0.67%
- NEUTROPHIL [2]: 9.5%
- NUCLEATED RED BLOOD CELLS [2]: 0 /100WBC
- PLATELET COUNT [2]: 1096 x10E3/uL
- ALANINE AMINOTRANSFERASE [2]: 50 u/L
- ALBUMIN [2]: 4.02 G/DL
- ALKALINE PHOSPHATASE [2]: 271.17 u/L
- ASPARTATE AMINOTRANSFERASE [2]: 84.17 u/L
- BLOOD UREA NITROGEN [2]: 13.33 mg/dL
- CARBON DIOXIDE [2]: 27 mmol/L
- CHLORIDE [2]: 99 MEQ/L
- CHOLESTEROL [2]: 68 mg/dL
- CREATINE PHOSPHOKINASE [2]: 313.67 u/L
- CREATININE [2]: 0.21 mg/dL
- GLUCOSE [2]: 163 mg/dL
- LACTATE DEHYDROGENASE [2]: 75.67 u/L
- LIPASE [2]: 11.5 u/L
- PHOSPHORUS [2]: 9.62 mg/dL
- POTASSIUM [2]: 5.45 MEQ/L
- SODIUM [2]: 143.1 MEQ/L
- TOTAL BILIRUBIN [2]: 0.2 mg/dL
- TOTAL PROTEIN [2]: 6.08 G/DL
- URIC ACID [2]: 0.68 mg/dL
- ABSOLUTE BASOPHIL [3]: 0 CELLS/uL
- ABSOLUTE EOSINOPHIL [3]: 0 CELLS/uL
- ABSOLUTE LYMPHOCYTE [3]: 6967 CELLS/uL
- ABSOLUTE MONOCYTE [3]: 31.33 CELLS/uL
- ABSOLUTE SEGMENTED NEUTROPHIL [3]: 568.33 CELLS/uL
- BASOPHIL [3]: 0%
- EOSINOPHIL [3]: 0%
- ERYTHROCYTE COUNT [3]: 5.13 x10E6/uL
- HEMATOCRIT [3]: 33.67%
- HEMOGLOBIN [3]: 13.23 G/DL
- LEUKOCYTE COUNT [3]: 7.57 x10E3/uL
- LYMPHOCYTE [3]: 92%
- MEAN CORPUSCULAR HEMOGLOBIN [3]: 25.8 pg
- MEAN CORPUSCULAR HEMOGLOBIN CONCENTRATION [3]: 39.3 G/DL
- MEAN CORPUSCULAR VOLUME [3]: 65.53 fL
- MONOCYTE [3]: 0.33%
- NEUTROPHIL [3]: 7.67%
- NUCLEATED RED BLOOD CELLS [3]: 0 /100WBC
- PLATELET COUNT [3]: 1145.33 x10E3/uL
- ALANINE AMINOTRANSFERASE [3]: 52 u/L
- ALBUMIN [3]: 4.23 G/DL
- ALKALINE PHOSPHATASE [3]: 313.33 u/L
- ASPARTATE AMINOTRANSFERASE [3]: 91.67 u/L
- BLOOD UREA NITROGEN [3]: 11.67 mg/dL
- CARBON DIOXIDE [3]: 32.33 mmol/L
- CHLORIDE [3]: 99.5 MEQ/L
- CHOLESTEROL [3]: 73 mg/dL
- CREATINE PHOSPHOKINASE [3]: 427 u/L
- CREATININE [3]: 0.31 mg/dL
- GLUCOSE [3]: 163 mg/dL
- LACTATE DEHYDROGENASE [3]: 93 u/L
- LIPASE [3]: 13.33 u/L
- PHOSPHORUS [3]: 11.2 mg/dL
- POTASSIUM [3]: 5.61 MEQ/L
- SODIUM [3]: 143.75 MEQ/L
- TOTAL BILIRUBIN [3]: 0.1 mg/dL
- TOTAL PROTEIN [3]: 6.17 G/DL
- URIC ACID [3]: 0.83 mg/dL
